How the values were obtained:
AKT [1] = assay: Western immunoblot of AKT phosphorylation in AML cell lines; format: cell-based
Description: (§1) Protein lysates were prepared with 1×CST Lysis Buffer (CST #9803) supplemented with 1× cOmplete protease inhibitor cocktail (Roche #04693124001) and 1× PhosSTOP phosphatase inhibitor (Roche #04906837001). Crude lysates were rotated for 15 minutes with lysis buffer, cleared by centrifugation at 13,000 rpm for 10 minutes at 4° C. and normalized by total protein content using standard Bradford analysis. Membranes were probed with primary antibodies β-actin (13E5) (CST #4970 diluted 1:5000 in 5% BSA), p-AKT T308 (244F9) (CST #4056 diluted 1:1000 in 5% BSA), p-AKT S473 (D9E) (CST #4060 diluted 1:1000 in 5% BSA), T-AKT (C67E7) (CST #4691 diluted 1:3000 in 5% BSA), p-GSK3B S9 (D85E12) (CST #5558 diluted 1:1000 in 5% BSA), p-BAD S136 (D25H8) (CST #4366 diluted 1:1000 in 5% BSA), CRM1 (C-1) (sc #74454 diluted 1:100 in 5% BSA), cleaved-PARP (D64E10) (CST #5625 diluted 1:1000 in 5% BSA), cleaved-Caspase3 D175 (CST #9661 diluted 1:500 in 5% BSA), p110-g (D55D5) (CST #5405 diluted 1:1000 in 5% BSA), p110α (C73F8) (CST #4249 diluted 1:1000 in 5% BSA), p110β (C33D4) (CST #3011 diluted 1:1000 in 5% BSA), p1108 (D1Q7R) (CST #34050 diluted 1:1000 in 5% BSA) or p101 (D32A5) (CST #5569 diluted 1:1000 in 5% BSA) overnight (16 hours). Following incubation with HRP-conjugated secondary antibody, blots were developed with SuperSignal West Pico PLUS Chemiluminescent Substrate (ThermoFisher) or ECL Western Blotting Substrate (ThermoFisher).
To validate selinexor's ability to activate PI3K/AKT signaling, each of five AML cell lines was treated with selinexor for 24 hours before performing western blot analysis. […] Additional AKT-dependent phosphorylation marks on PRAS40, FOXO3a, and TSC2 were also assessed in OCI-AML2 cells and found to be increased. This phosphorylation pattern was indicative of activated AKT signaling. To characterize the kinetics of selinexor-induced AKT activation, AML cells were treated with selinexor and collected samples at interval time points up to 48 hours. Across multiple cell lines, activation of AKT signaling was observed starting at 8-24 hours (FIG. 2B). […] The delays between treatment and AKT activation, observed both in vivo and in vitro, were not inconsistent with the presumption that selinexor primarily acts through transcriptional mechanisms. Finally, to assess the exclusivity of these findings for selinexor, cells were treated with a panel of eight additional anti-leukemic drugs for 24 hours.

AML cell lines = assay: Short-term drug sensitivity assay (GI50), selinexor plus background drug; format: cell-based; conditions: fixed-concentration background drug; for sensitization to selinexor (relative selinexor GI50), PI3K isoform-specific inhibitor background: panel of AML cell lines; for sensitization to selinexor (relative selinexor GI50), AKT or MEK/ERK inhibitor background: panel of eight AML cell lines, 72 hours
Description: Short-term cell viability assays were conducted. Briefly, AML cells were seeded at a density of 7,500 cells/well, treated with vehicle (DMSO) or a 10-fold serial dilution of selinexor (individually or combination with fixed-concentration background drug) and assessed for viability after 72-hours using Cell Titer Glo (Promega). The relative cell viability was determined by normalizing the raw luminescence values for each treatment condition to either the DMSO-treated well (selinexor individually) or the background drug only well (selinexor combinations). GI50 values approximate the concentration of selinexor required to inhibit growth of cells by 50%. Values were interpolated from dose-response curves plotted using GraphPad/Prism 8 software.

RAS = assay: Ras-GTP immunoprecipitation (RAF1-RBD pulldown); format: cell-based
Description: Active GTP bound Ras was pulled down and detected using the Active Ras Pull-Down and Detection Kit (Thermo Scientific, #16117) according to manufacturer's instruction. At least 10×10^6 cells were used in pull-down and lysates were normalized to ensure equal protein input across DMSO and selinexor-treated samples within each cell line.

P2RY2 = assay: qRT-PCR of P2RY2 expression; format: cell-based
Description: RNA was isolated from whole cells with the RNEasy Mini kit (Qiagen). cDNA was reverse transcribed from total RNA samples using iScript cDNA Synthesis Kit with 1 μg of RNA template. qRT-PCR was carried out using iQ SYBR Green Supermix and a CFX384 Touch Real-Time PCR Detection System, according to manufacturer instructions. Fold expression was determined by normalizing cycle threshold (Cq) values to ACTB reference gene and normalizing samples to control sample, in accordance with the ΔΔCq method.

OCI-AML2 cells [2] = assay: Reverse phase protein array (RPPA) analysis; format: cell-based
Description: OCI-AML2 cells were treated with DMSO or selinexor for 3, 24 and 48-hours at which point 3×10^6 cells were pelleted and frozen at -80° C. RPPA analysis was performed as previously described. All samples were conducted in biological triplicate and normalized to DMSO control at each respective timepoint. Next, it was sought to identify the signaling nodes activated by selinexor treatment. To do this, a reverse phase protein array (RPPA) was used to analyze AML cells treated with DMSO or selinexor for 48 hours, using a dose of selinexor sufficient to provide an on-target effect but not high enough to impose a meaningful selective pressure. The RPPA platform, which provides quantitative measurements of 160 epitopes and phospho-epitopes representing cellular growth, proliferation, and signaling pathways, identified many drug-induced effects, several of which supported previously described mechanisms of selinexor activity. […] (FIG. 1C). […] In addition to corroborating selinexor's established effects, the RPPA data was able to identify selinexor-induced downregulations of phospho-S6 at Ser235/236 and Ser240/244, phospho-elF4G at […], and phospho-4E-BP1 at […], which collectively pointed to suppression of mTORC1 signaling (FIG. 1C). This idea has been raised in multiple myeloma and was further supported here by the reciprocal upregulation of DEPTOR, a negative regulator of mTOR.

MAPK signaling = assay: Western blot of MAPK signaling in AML cell lines; format: cell-based; conditions: multiple AML cell lines
Description: as §1, with “Following incubation with HRP-conjugated secondary antibody, blots were developed with SuperSignal West Pico PLUS Chemiluminescent Substrate (ThermoFisher) or ECL Western Blotting Substrate (ThermoFisher).” left out

AKT [3] = assay: AKT activation in vivo, syngeneic MLL-AF9-driven model of AML; conditions: MLL-AF9 cells from treated mice
[4] = format: in vivo; conditions: selinexor 15 mg/kg in mice
Description: Animals transplanted with these AML cells were treated with the combination of selinexor (15 mg/kg, oral gavage) and ipatasertib (65 mg/kg, oral gavage) or either drug alone every other day for ten days.

OCI-AML2 cells [5] = assay: Pooled CRISPR selinexor sensitizer screen, selinexor dose (approx. GI50); format: cell-based; conditions: Homo sapiens, 336 h, two-week screen period, approximate, read-out: GI50 concentration
Description: Virus production, titering and transduction was performed as previously described. In short, viral titer (Infectious Units (IFU)/mL) was found by transducing OCI-AML2 cells with a 1:3 dilution series of library virus, selecting cells with puromycin for 2 days and determining multiplicity of infection (MOI) from % of cells infected. Viral titer is equal to (#cells seeded*MOI*Virus dilution factor)/(Volume of virus added to each well). […] For the selinexor sensitizer screen, selinexor was dosed at 100 nM, a concentration that yielded sufficient selective pressure without excessive cell death (approximately the GI50 concentration) over the two-week screen period. […] Genomic DNA was extracted using the DNeasy Blood & Tissue Kit (Qiagen) from 25×10^6 cell samples taken prior to dividing cells into treatment conditions (time zero) and after completion of the two-week screen. Amplification of the sgRNA barcodes and indexing of each sample was performed via 2-step PCR as previously described.

extracellular ATP = assay: Extracellular ATP release in presence of ARL67156; format: cell-based; conditions: 36 hours, with ectonucleotidase inhibitor ARL67156, normalized for cell quantity
Description: To assess the role of P2RY2 in selinexor-induced AKT activation, the ability of P2RY2 to activate AKT in the AML cell lines was first tested by culturing cells in the presence of exogenous ATP or UTP. Cells cultured with exogenous ATP activated AKT signaling while cells cultured with exogenous UTP only minimally activated AKT, if at all, prompting the possibility that selinexor may activate AKT signaling through induced release of extracellular ATP. This was tested by treating cells with selinexor versus vehicle in the presence of the ectonucleotidase inhibitor ARL67156 and quantifying the amount of extracellular ATP released after 36 hours.

## NC(=O)/C(=C/n1cnc(-c2cc(C(F)(F)F)cc(C(F)(F)F)c2)n1)c1cncnc1 [eltanexor]
AKT [1]; western blot of eltanexor-treated samples
  AKT phosphorylation at Thr308 and Ser473 (second-generation CRM1 inhibitor): produced consistent phosphorylation of AKT at Thr308 and Ser473

## Cc1cc(C(C)Nc2ccccc2)c2nc(N3CCOCC3)cc(=O)n2c1 (stereo not shown) [TGX-221]
AML cell lines
  sensitization to selinexor (relative selinexor GI50), PI3K isoform-specific inhibitor background: unable to sensitize any of the cell lines to selinexor

## Cc1ccc2c(c1)C=Cc1cc(C)ccc1C2c1cn(Cc2ccc(C(=O)Nc3nn[nH]n3)o2)c(=O)[nH]c1=S [AR-C118925XX]
RAS; OCI-AML2, AR-C added to selinexor
  effect on selinexor-induced GTP-RAS: able to reverse the increased GTP-RAS
AKT [1]; OCI-AML2 cells expressing D835Y-mutant FLT3
  p-AKT T308 in FLT3-mutant expressing cells: reduced but did not completely ablate the elevated p-AKT T308 signal
AKT [1]; OCI-AML2 cells expressing GFP, western blot
  p-AKT T308, baseline: suppressed p-AKT T308

## Cc1nc(NC(=O)N2CCC[C@H]2C(N)=O)sc1-c1ccnc(C(C)(C)C(F)(F)F)c1 [BYL-719]
AML cell lines
  sensitization to selinexor (relative selinexor GI50), PI3K isoform-specific inhibitor background: unable to sensitize any of the cell lines to selinexor

## NC1(c2ccc(-c3nc4ccn5c(=O)[nH]nc5c4cc3-c3ccccc3)cc2)CCC1 [MK-2206]
AML cell lines
  sensitization to selinexor (relative selinexor GI50), AKT or MEK/ERK inhibitor background: capable of sensitizing all eight of the AML cell lines tested to selinexor

## O=C(/C=C\n1cnc(-c2cc(C(F)(F)F)cc(C(F)(F)F)c2)n1)NNc1cnccn1 [selinexor]
P2RY2; each of five AML cell lines, vs DMSO control
  P2RY2 expression: increased P2RY2 expression
P2RY2; qRT-PCR, up to 48 hours
  time course of P2RY2 transcriptional upregulation: transcriptional upregulation of P2RY2 starting at 12 and increasing through 48 hours
RAS; five AML cell lines, selinexor- versus vehicle-treated
  GTP-RAS: increased GTP-RAS
AKT [1]; five AML cell lines, selinexor 24 hours, western blot
  AKT phosphorylation at Thr308 and Ser473: increased AKT phosphorylation at both Thr308 and Ser473
AKT [1]; multiple AML cell lines, time points up to 48 hours
  start of activation of AKT signaling: 8 to 24 h
OCI-AML2 cells [2]; OCI-AML2 cells, 48 hours selinexor vs DMSO
  RPPA expression of phospho-AKT (Thr308 and Ser473): two of the strongest upregulations identified by RPPA were reserved for AKT
OCI-AML2 cells [2]; selinexor- versus vehicle-treated cells
  RPPA phospho-ERK at Thr202/Tyr204: an increase in phopho-ERK at Thr202/Tyr204
MAPK signaling
  MAPK signaling: activated MAPK signaling in a P2RY2 dependent manner
AKT [3]
  start of AKT activation after treatment: 6 to 8 h
[4]
  on-target response: induction of p53
OCI-AML2 cells [5]
  GI50: ~100 nM
Extracellular ATP
  extracellular ATP released: no increase in extracellular ATP

## C[C@H](NC(=O)c1c(N)nn2cccnc12)c1cc2cccc(C#Cc3cnn(C)c3)c2c(=O)n1-c1ccccc1 [IPI-549]
AML cell lines
  sensitization to selinexor (relative selinexor GI50), PI3K isoform-specific inhibitor background: capable of sensitizing each AML cell line to selinexor

## CC(C)NC[C@@H](C(=O)N1CCN(c2ncnc3c2[C@H](C)C[C@H]3O)CC1)c1ccc(Cl)cc1 [ipatasertib]
AML cell lines
  sensitization to selinexor (relative selinexor GI50), AKT or MEK/ERK inhibitor background: capable of sensitizing all eight of the AML cell lines tested to selinexor

## CCn1c(-c2nonc2N)nc2c(C#CC(C)(C)O)ncc(OC[C@H]3CCCNC3)c21 [GSK690693]
AML cell lines
  sensitization to selinexor (relative selinexor GI50), AKT or MEK/ERK inhibitor background: capable of sensitizing all eight of the AML cell lines tested to selinexor

Source: patent publication US20240216376A1, “COMBINATION THERAPIES FOR THE TREATMENT OF CANCER” (Duke University, priority 2021, published 2024)
